Measurements from BindingDB's records for doi:10.1016/j.bmcl.2020.127696 (National Institutes of Health, 2021).
One block for each compound: values may come before it.

Tests used:
D(1B) dopamine receptor = D(1B) dopamine receptor (Homo sapiens, UniProt P21918); assay: Positive allosteric modulator activity at human dopamine D5 receptor expressed in CHO-K1 cells assessed as potentiation of dopamine-induced beta-arrestin2 recruitment by measuring dopamine EC50 at 50 uM incubated for 90 mins by PathHunter assay (Rvb = 81.7 nM)
D(1A) dopamine receptor = D(1A) dopamine receptor (Homo sapiens, UniProt P21728); assay: Positive allosteric modulator activity at human dopamine D1 receptor expressed in HEK293 cells assessed as potentiation of dopamine-induced cAMP accumulation by measuring dopamine EC50 at 50 uM measured after 30 mins by HitHunter assay (Rvb = 214 nM)
Sequence of D(1A) dopamine receptor (P21728 whole entry): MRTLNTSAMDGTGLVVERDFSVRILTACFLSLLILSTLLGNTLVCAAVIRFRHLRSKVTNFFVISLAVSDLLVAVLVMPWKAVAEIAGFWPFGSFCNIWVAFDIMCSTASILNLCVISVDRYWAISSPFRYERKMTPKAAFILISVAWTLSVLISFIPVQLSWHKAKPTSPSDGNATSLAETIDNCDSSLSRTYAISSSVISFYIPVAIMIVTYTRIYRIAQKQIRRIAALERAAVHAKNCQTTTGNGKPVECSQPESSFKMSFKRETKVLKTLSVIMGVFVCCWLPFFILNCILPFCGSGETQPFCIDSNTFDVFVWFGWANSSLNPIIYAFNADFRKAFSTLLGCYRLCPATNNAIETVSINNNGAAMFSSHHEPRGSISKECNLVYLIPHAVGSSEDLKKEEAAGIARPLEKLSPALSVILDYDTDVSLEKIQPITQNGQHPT

Sequence of D(1B) dopamine receptor (P21918 whole entry): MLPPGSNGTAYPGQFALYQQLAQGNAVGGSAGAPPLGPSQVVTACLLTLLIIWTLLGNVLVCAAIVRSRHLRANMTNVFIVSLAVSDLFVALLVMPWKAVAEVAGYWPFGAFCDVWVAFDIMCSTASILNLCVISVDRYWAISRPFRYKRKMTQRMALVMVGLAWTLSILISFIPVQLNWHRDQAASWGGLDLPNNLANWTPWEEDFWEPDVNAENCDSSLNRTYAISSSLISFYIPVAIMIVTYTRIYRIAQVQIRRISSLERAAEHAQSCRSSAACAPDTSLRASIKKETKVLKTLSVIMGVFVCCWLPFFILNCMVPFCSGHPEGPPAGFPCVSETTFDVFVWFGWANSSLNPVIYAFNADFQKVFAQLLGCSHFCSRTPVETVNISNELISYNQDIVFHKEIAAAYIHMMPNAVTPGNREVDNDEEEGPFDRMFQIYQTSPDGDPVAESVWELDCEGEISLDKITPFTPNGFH

Compound: Cn1c2ccccc2c(=O)c2c(=O)[nH]c(C3CCCC3)nc21
- EC50 (D(1B) dopamine receptor): 82 nM

Compound: COc1ccc(-n2c(C3CCCC3)nc3c(c(=O)c4ccccc4n3C)c2=O)cc1Cl
- EC50 (D(1B) dopamine receptor): 28 nM

Compound: COc1ccc(-n2c(C3CCCC3)nc3c(c(=O)c4ccccc4n3C)c2=O)cc1
- EC50 (D(1B) dopamine receptor): 25 nM

Compound: Cn1c2ccccc2c(=O)c2c(=O)n(-c3ccc(Cl)cc3)c(C3CCCC3)nc21
- EC50 (D(1B) dopamine receptor): 43 nM

Compound: Cc1ccc(-n2c(C3CCCC3)nc3c(c(=O)c4ccccc4n3C)c2=O)cc1
- EC50 (D(1B) dopamine receptor): 27 nM

Compound: COc1ccc(-n2c(CC(C)C)nc3c(c(=O)c4ccccc4n3C)c2=O)cc1Cl
- EC50 (D(1B) dopamine receptor): 58 nM

Compound: COc1ccc(-n2c(CC(C)C)nc3c(c(=O)c4ccccc4n3C)c2=O)cc1
- EC50 (D(1B) dopamine receptor): 34 nM

Compound: CC(C)Cc1nc2c(c(=O)c3ccccc3n2C)c(=O)n1-c1cccc(Cl)c1
- EC50 (D(1B) dopamine receptor): 63 nM

Compound: CC(C)Cc1nc2c(c(=O)c3ccccc3n2C)c(=O)n1-c1ccc(Cl)cc1
- EC50 (D(1B) dopamine receptor): 56 nM

Compound: Cc1ccc(-n2c(CC(C)C)nc3c(c(=O)c4ccccc4n3C)c2=O)cc1
- EC50 (D(1B) dopamine receptor): 44 nM

Compound: COc1ccc(-n2c(C3CCCCC3)nc3c(c(=O)c4ccccc4n3C)c2=O)cc1Cl
- EC50 (D(1B) dopamine receptor): 59 nM

Compound: COc1ccc(-n2c(C3CCCCC3)nc3c(c(=O)c4ccccc4n3C)c2=O)cc1
- EC50 (D(1B) dopamine receptor): 62 nM

Compound: Cn1c2ccccc2c(=O)c2c(=O)n(-c3ccc(Cl)cc3)c(C3CCCCC3)nc21
- EC50 (D(1B) dopamine receptor): 44 nM

More lines, now with the values ahead:

- EC50 (D(1B) dopamine receptor): 95 nM
Compound: Cn1c2ccccc2c(=O)c2c(=O)n(-c3ccccc3)c(C3CC3)nc21

- EC50 (D(1B) dopamine receptor): 94 nM
Compound: COc1ccc(-n2c(CC3CCCCC3)nc3c(c(=O)c4ccccc4n3C)c2=O)cc1Cl

- EC50 (D(1B) dopamine receptor): 95 nM
Compound: Cn1c2ccccc2c(=O)c2c(=O)n(-c3cccc(Cl)c3)c(CC3CCCCC3)nc21

- EC50 (D(1B) dopamine receptor): 74 nM
Compound: Cn1c2ccccc2c(=O)c2c(=O)n(-c3ccc(Cl)cc3)c(CC3CCCCC3)nc21

- EC50 (D(1B) dopamine receptor): 168 nM
Compound: Cc1ccc(-n2c(CC3CCCCC3)nc3c(c(=O)c4ccccc4n3C)c2=O)cc1

- EC50 (D(1B) dopamine receptor): 49 nM
Compound: Cn1c2ccccc2c(=O)c2c(=O)n(-c3ccccc3)c(CC3CCCCC3)nc21

- EC50 (D(1B) dopamine receptor): 43 nM
Compound: Cn1c2ccccc2c(=O)c2c(=O)n(-c3cccc(Cl)c3)c(C3CCCC3)nc21

- EC50 (D(1B) dopamine receptor): 80 nM
Compound: Cn1c2ccccc2c(=O)c2c(=O)n(-c3ccccc3)c(C3CCCC3)nc21

- EC50 (D(1B) dopamine receptor): 103 nM
Compound: CC(C)Cc1nc2c(c(=O)c3ccccc3n2C)c(=O)n1-c1ccccc1

- EC50 (D(1B) dopamine receptor): 80 nM
Compound: Cn1c2ccccc2c(=O)c2c(=O)n(-c3cccc(Cl)c3)c(C3CCCCC3)nc21

- EC50 (D(1B) dopamine receptor): 27 nM
Compound: Cc1ccc(-n2c(C3CCCCC3)nc3c(c(=O)c4ccccc4n3C)c2=O)cc1

- EC50 (D(1B) dopamine receptor): 29 nM
- EC50 (D(1A) dopamine receptor): 123 nM
Compound: Cn1c2ccccc2c(=O)c2c(=O)n(-c3ccccc3)c(C3CCCCC3)nc21
